In US11174251B2, “Compositions and methods for inhibition of the JAK pathway” (Rigel Pharmaceuticals, Inc., priority 2010, dated 2021):
Where a name gives a salt, the structure may show the parent alone.

Target: T1, JAK3 (Homo sapiens, UniProt P52333)
T1 construct: The Ramos B-cell line was acquired from ATCC (ATCC Catalog No. CRL-1596); host or cells: Ramos B-cell line (human)
T1 sequence (P52333 1-1124): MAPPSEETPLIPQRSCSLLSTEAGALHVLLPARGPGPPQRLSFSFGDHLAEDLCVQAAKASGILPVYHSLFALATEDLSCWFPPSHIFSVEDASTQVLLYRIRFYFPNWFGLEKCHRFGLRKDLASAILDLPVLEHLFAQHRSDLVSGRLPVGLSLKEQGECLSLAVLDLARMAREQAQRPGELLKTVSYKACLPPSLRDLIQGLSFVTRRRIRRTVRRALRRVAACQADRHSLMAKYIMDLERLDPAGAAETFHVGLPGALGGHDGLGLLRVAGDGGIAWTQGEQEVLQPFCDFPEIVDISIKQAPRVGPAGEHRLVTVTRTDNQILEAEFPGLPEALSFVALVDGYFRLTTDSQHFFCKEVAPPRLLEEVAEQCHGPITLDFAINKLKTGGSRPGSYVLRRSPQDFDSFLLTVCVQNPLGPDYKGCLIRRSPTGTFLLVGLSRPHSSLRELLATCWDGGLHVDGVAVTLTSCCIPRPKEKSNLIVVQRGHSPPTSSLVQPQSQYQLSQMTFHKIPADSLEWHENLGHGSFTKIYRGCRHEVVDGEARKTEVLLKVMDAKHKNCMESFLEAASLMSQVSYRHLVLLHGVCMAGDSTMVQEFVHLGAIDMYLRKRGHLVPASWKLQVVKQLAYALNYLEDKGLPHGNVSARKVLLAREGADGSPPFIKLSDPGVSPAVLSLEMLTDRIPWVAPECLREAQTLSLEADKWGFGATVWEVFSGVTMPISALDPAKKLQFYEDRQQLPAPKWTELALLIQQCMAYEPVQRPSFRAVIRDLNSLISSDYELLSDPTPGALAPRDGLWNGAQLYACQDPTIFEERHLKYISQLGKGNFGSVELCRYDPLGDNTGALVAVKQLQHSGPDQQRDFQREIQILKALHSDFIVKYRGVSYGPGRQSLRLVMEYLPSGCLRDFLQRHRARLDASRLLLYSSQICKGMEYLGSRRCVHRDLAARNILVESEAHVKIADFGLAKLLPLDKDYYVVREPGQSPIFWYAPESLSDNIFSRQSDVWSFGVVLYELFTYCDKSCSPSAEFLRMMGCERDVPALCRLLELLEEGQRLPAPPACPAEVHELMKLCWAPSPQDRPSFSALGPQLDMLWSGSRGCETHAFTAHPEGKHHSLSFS
Assay: Assay for CD23 expression on Ramos B-cells stimulated by IL-4 (Table IV: ability to inhibit JAK3 activity)
Format: cell-based
Conditions: tested under conditions described in Example 3 (so in the source)
Method in brief: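 Human Ramos B cells in RPMI with 5% serum, pre-incubated 1 h at 37 °C with compound or DMSO, then stimulated with IL-4 (final 50 units/mL) for 20–24 h. Surface CD23 upregulation measured by FACS staining as readout of JAK1/JAK3–Stat-6 signalling.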

`Cc1cc(Nc2ncc(Cl)c(Nc3ccc4oc(=O)[nH]c4c3)n2)cc(C)c1C` [Compound I-6, 5-(5-chloro-2-(3,4,5-trimethylphenylamino)pyrimidin-4-ylamino)benzo[d]oxazol-2(3H)-one trifluoroacetate salt] was tested, and the IC50 was > 10 µM.

With `COc1cc(Nc2ncc([N+](=O)[O-])c(Nc3ccc4oc(=O)[nH]c4c3)n2)ccc1C` [Compound I-44, 5-(2-(3-methoxy-4-methylphenylamino)-5-nitropyrimidin-4-ylamino)benzo[d]oxazol-2(3H)-one trifluoroacetate salt] the IC50 was > 10 µM.

With `COC(=O)c1cnc(Nc2ccccc2)nc1Nc1ccc2oc(=O)[nH]c2c1` [Compound I-39, 4-(2-oxo-2,3-dihydro-benzooxazol-5-ylamino)-2-phenylamino-pyrimidine-5-carboxylic acid methyl ester trifluoroacetate salt] the IC50 was > 10 µM.

For `N#Cc1cccc(Nc2ncc(Cl)c(Nc3ccc4oc(=O)[nH]c4c3)n2)c1F` [Compound I-73, 3-(5-chloro-4-(2-oxo-2,3-dihydrobenzo[d]oxazol-5-ylamino)pyrimidin-2-ylamino)-2-fluorobenzonitrile trifluoroacetate salt], the IC50 was < 0.5 µM.

Compound `COc1cc(Nc2ncc(F)c(Nc3cc(C)c4oc(=O)[nH]c4c3)n2)cc(C)c1F` [Compound I-190, 5-(2-(4-fluoro-3-methoxy-5-methylphenylamino)-5-fluoropyrimidin-4-ylamino)-7-methylbenzo[d]oxazol-2(3H)-one trifluoroacetate salt] has an IC50 of 0.5 to 5 µM.

In the case of `COc1cccc(Nc2ncc(C)c(Nc3ccc4oc(=O)[nH]c4c3)n2)c1F` [Compound I-19, 5-[2-(2-Fluoro-3-methoxy-phenylamino)-5-methyl-pyrimidin-4-ylamino]-3H-benzooxazol-2-one], the IC50 is reported as < 0.5 µM.

For `Cc1ccc(Nc2ncc(F)c(Nc3ccc4oc(=O)[nH]c4c3)n2)cc1-c1ccncc1` [Compound I-203, 5-(2-(4-methyl-3-(pyridin-4-yl)phenylamino)-5-fluoropyrimidin-4-ylamino)benzo[d]oxazol-2(3H)-one], the IC50 was < 0.5 µM.

Compound `CCN(CC)Cc1cc(Nc2nc(Nc3cc(C)c(C)c(C)c3)ncc2C)cc2[nH]c(=O)oc12` [Compound I-90, 7-((diethylamino)methyl)-5-(2-(3,4,5-trimethylphenylamino)-5-methylpyrimidin-4-ylamino)benzo[d]oxazol-2(3H)-one ditrifluoroacetate salt] has an IC50 of 0.5 to 5 µM.

`Cc1cnc(Nc2cc(C)c(C)c(C)c2)nc1Nc1cc(CN2CCNCC2)c2oc(=O)[nH]c2c1` [Compound I-95, 5-(2-(3,4,5-trimethylphenylamino)-5-methylpyrimidin-4-ylamino)-7-((piperazin-1-yl)methyl)benzo[d]oxazol-2(3H)-one ditrifluoroacetate salt] was tested, and the IC50 was 5 to 10 µM.

Work on `Cc1cnc(N(C)c2ccccc2)nc1Nc1ccc2oc(=O)[nH]c2c1` [Compound I-26, 5-[5-Methyl-2-(methyl-phenyl-amino)-pyrimidin-4-ylamino]-3H-benzooxazol-2-one] yielded an IC50 of 0.5 to 5 µM.

For `COc1ccc(Nc2ncc(C)c(Nc3ccc4oc(=O)[nH]c4c3)n2)c(F)c1OC` [Compound I-102, 5-(2-(2-fluoro-3,4-d6-dimethoxyphenylamino)-5-methylpyrimidin-4-ylamino)benzo[d]oxazol-2(3H)-one], the IC50 was < 0.5 µM.

Work on `COc1ccc(F)c(Nc2ncc(F)c(Nc3ccc4oc(=O)[nH]c4c3)n2)c1` [Compound I-119, 5-(5-fluoro-2-(2-fluoro-5-methoxyphenylamino)pyrimidin-4-ylamino)benzo[d]oxazol-2(3H)-one] yielded an IC50 of 5 to 10 µM.

With `O=c1[nH]c2cc(Nc3nc(Nc4ccc5ccccc5c4)ncc3[N+](=O)[O-])ccc2o1` [II-6, 5-(2-(naphthalen-2-ylamino)-5-nitropyrimidin-4-ylamino)benzo[d]oxazol-2(3H)-one trifluoroacetate salt] the IC50 was > 10 µM.

For `Cc1ccc(Nc2ncc(Cl)c(Nc3ccc4oc(=O)[nH]c4c3)n2)cc1N(C)C` [Compound I-33, 5-(5-chloro-2-(3-(dimethylamino)-4-methylphenylamino)pyrimidin-4-ylamino)benzo[d]oxazol-2(3H)-one], the IC50 was < 0.5 µM.
